ChEMBL document CHEMBL1130857, “Synthesis and biological activity of lactones en route to Altohyrtin A” (1998)
Values after ≈ are worked out from the molar mass of the structure shown. Active and inactive are the calls of the source. The rule behind the calls is not given here.

Legend:
[1] = system: SW 1736; experiment: Antitumor activity against Thyroid ca SW 1736 cells was evaluated; No biological activity; format: functional, cell-based; details: Homo sapiens
[2] = organism: Homo sapiens; experiment: Antitumor activity against Pharynx-sq FADU cells was evaluated; No biological activity; format: functional
[3] = system: BXPC-3; experiment: Antitumor activity against Pancreas-a BXPC-3 cells was evaluated; No biological activity; format: functional, cell-based; details: Homo sapiens
[4] = system: DU-145; experiment: Antitumor activity against Prostate DU-145 cells was evaluated; No biological activity; format: functional, cell-based; details: Homo sapiens
[5] = system: KAT-4; experiment: Antitumor activity against Thyroid ca KAT-4 cells was evaluated; No biological activity; format: functional, cell-based; details: Homo sapiens
[6] = system: NCI-H460; experiment: Antitumor activity against Lung-NSC NCI-H460 cells was evaluated; No biological activity; format: functional, cell-based; details: Homo sapiens
[7] = Antitumor activity was evaluated by the total growth inhibition of Prostate DU-145 cells; Active; format: functional; details: Homo sapiens, DU-145, read-out: TGI50
[8] = Antitumor activity was evaluated by the lethal concentration of Thyroid ca KAT-4 cells; Active; format: functional; details: Homo sapiens, read-out: LC50 (the source's name)
[9] = Antitumor activity was evaluated by the total growth inhibition of Thyroid ca KAT-4 cells; Active; format: functional; details: Homo sapiens, KAT-4, read-out: TGI50
[10] = Antitumor activity was evaluated by the lethal concentration of Pancreas-a BXPC-3 cells; Active; format: functional; details: Homo sapiens, read-out: LC50 (the source's name)
[11] = Antitumor activity was evaluated by the growth inhibition of Thyroid ca KAT-4 cells; Active; format: functional; details: Homo sapiens
[12] = Antitumor activity was evaluated by the total growth inhibition of Thyroid ca SW 1736 cells; Active; format: functional; details: Homo sapiens, SW-1736, read-out: TGI50
[13] = Antitumor activity was evaluated by the growth inhibition of Pancreas-a BXPC-3 cells; Active; format: functional; details: Homo sapiens
[14] = organism: Homo sapiens; experiment: Antitumor activity was evaluated by the total growth inhibition of Pharynx-sq FADU cells; Active; format: functional; details: read-out: TGI50
[15] = Antitumor activity was evaluated by the growth inhibition of Thyroid ca SW 1736 cells; Active; format: functional; details: Homo sapiens
[16] = Antitumor activity was evaluated by the growth inhibition of Lung-NSC NCI-H460 cells; Active; format: functional; details: Homo sapiens
[17] = Antitumor activity was evaluated by the total growth inhibition of Pancreas-a BXPC-3 cells; Active; format: functional; details: Homo sapiens, BXPC-3, read-out: TGI50
[18] = Antitumor activity was evaluated by the lethal concentration of Prostate DU-145 cells; Active; format: functional; details: Homo sapiens, read-out: LC50 (the source's name)
[19] = Antitumor activity was evaluated by the lethal concentration of Thyroid ca SW 1736 cells; Active; format: functional; details: Homo sapiens, read-out: LC50 (the source's name)
[20] = Antitumor activity was evaluated by the lethal concentration of Lung-NSC NCI-H460 cells; Active; format: functional; details: Homo sapiens, read-out: LC50 (the source's name)
[21] = Antitumor activity was evaluated by the growth inhibition of Prostate DU-145 cells; Active; format: functional; details: Homo sapiens
[22] = Antitumor activity was evaluated by the total growth inhibition of Lung-NSC NCI-H460 cells; Active; format: functional; details: Homo sapiens, NCI-H460, read-out: TGI50
[23] = organism: Homo sapiens; experiment: Antitumor activity was evaluated by the growth inhibition of Pharynx-sq FADU cells; Active; format: functional
[24] = organism: Homo sapiens; experiment: Antitumor activity was evaluated by the lethal concentration of Pharynx-sq FADU cells; Active; format: functional; details: read-out: LC50 (the source's name)

Structure (SMILES): C[C@H]1C(COCc2ccccc2)OC(=O)[C@@H](O)[C@@H]1O (some centres undefined)
- Activity [1]: inactive
- Activity [2]: inactive
- Activity [3]: inactive
- Activity [4]: inactive
- Activity [5]: inactive
- Activity [6]: inactive

Structure (SMILES): C[C@@H]1[C@@H](O)[C@H](O)C(=O)O[C@H]1[C@H]1COC(C)(C)O1
- GI50 [7]: > 10 µg/mL
- CC50 [8]: > 10000 µg/mL
- GI50 [9]: > 10 µg/mL
- CC50 [10]: > 10000 µg/mL
- GI50 [11]: > 10 µg/mL
- GI50 [12]: > 10 µg/mL
- GI50 [13]: > 10 µg/mL
- GI50 [14]: > 10 µg/mL
- GI50 [15]: 8.5 µg/mL (≈ 34.5 µM)
- GI50 [16]: 2.9 µg/mL (≈ 11.8 µM)
- GI50 [17]: > 10 µg/mL
- CC50 [18]: > 10000 µg/mL
- CC50 [19]: > 10000 µg/mL
- CC50 [20]: > 10000 µg/mL
- GI50 [21]: 2.7 µg/mL (≈ 11 µM)
- GI50 [22]: > 10 µg/mL
- GI50 [23]: 3.7 µg/mL (≈ 15 µM)
- CC50 [24]: > 10000 µg/mL
